Read-outs that look alike come from different tables or passages of the source.
Target: T1, AKR1C1 (Homo sapiens, UniProt Q04828)
T1 sequence (Q04828 1-323): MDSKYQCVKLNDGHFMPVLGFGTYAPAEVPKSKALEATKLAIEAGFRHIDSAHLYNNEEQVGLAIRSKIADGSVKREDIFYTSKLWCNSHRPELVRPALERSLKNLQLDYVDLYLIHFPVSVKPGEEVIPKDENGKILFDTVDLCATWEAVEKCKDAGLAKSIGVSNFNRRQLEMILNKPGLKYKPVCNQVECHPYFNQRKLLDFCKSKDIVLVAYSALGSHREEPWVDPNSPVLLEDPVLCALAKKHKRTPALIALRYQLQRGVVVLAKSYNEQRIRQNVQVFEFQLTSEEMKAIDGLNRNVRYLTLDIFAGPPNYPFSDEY
Experiment: Enzyme activity (NADPH) assay with s-tetralol, recombinant GST-AKR1C1;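 also: GST-fused AKR1C1 expressed in E. coli and purified by glutathione affinity, control wells received DMSO instead of compound, duplicate samples from a single experiment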
Format: biochemical
Parameters: made in house; host or cells: Escherichia coli JM109
Settings: for enzyme activity: CON 192.295568; for remaining activity at 2 µM: read-out: ratio (activity relative to CON)

[1] = 2 μM compound, Supplementary Table 1, CON 0.0122
[2] = 2 μM compound, Supplementary Table 1
[3] = 2 μM compound, Supplementary Table 1, CON = 1
[4] = 2 μM compound, Supplementary Table 1, read-out: % inhibition

Description: GST-tagged recombinant AKR1C isoforms expressed JM109 was grown in Luria-Bertani broth (100 μg⋅ml-1 ampicillin, pH = 7.0) at 37°C with orbital shaking at 220 rpm. When cells achieved an OD600 nm between 0.4 and 0.6, 0.3 mM final concentration of isopropyl β-D-1-thiogalactopyranoside (IPTG) was added to the cultures and incubated for an additional 12 h at 25°C. Cells were harvested by centrifugation at 8000 g for 10 min, and the cell pellets were stored at -80°C for storage. The pellets were resuspended in 1 × PBS, pH = 7.4 and lysed by ultrasonication at ice-cold temperature using an UH-03 union instrument. The purification of glutathione-S-transferase (GST)-fusion AKR1C1, AKR1C2, and AKR1C3 were then carried out using ÄKTA systems from GE Healthcare as described in Handbook. The recombinant proteins were eluted in 50 mM Tris–HCl (pH = 8.0) with 20 mM reduced glutathione, fresh preparedly. Protein concentrations were determined using the Bradford protein assay kit. All proteins were aliquoted and stored at -80°C containing 20% glycerol.
To screen for the indicated inhibitor, the assay mixture was added with additional DMSO or 2 μM compounds. […] The inhibition patterns were determined by fitting initial velocity and inhibitor concentration into inhibition models using Graphpad Prism 6.0. All inhibition data were obtained from single experiments, with samples conducted in duplicate.
Firstly, we overexpressed recombinant human AKR1C in E. coli in the form of a GST-fusion protein, and then purified it by affinity chromatography on glutathione-Sepharose.
To screen for the inhibitors of AKR1C1, we developed a readily accessible indirect NADPH generating-based assay that can be used for high-throughput inhibitors screening. […] Wells were included containing enzyme and no inhibitor or 2 μM inhibitor.

| Compound | slope [1] | enzyme activity [2] [nmol/min/mg] | remaining activity at 2 µM [3] [%] | inhibition at 2 µM [4] [%] | % inhibition [2] [%] | ratio (activity relative to CON) [3] | slope | inhibition at 2 µM [%] | remaining activity at 2 µM [%] |
| --- | --- | --- | --- | --- | --- | --- | --- | --- | --- |
| COc1cc(C(=O)O[C@H]2[C@@H]3C=CO[C@@H](O[C@@H]4O[C@H](CO)[C@@H](O)[C@H](O)[C@H]4O)[C@@H]3[C@@]3(CO)O[C@@H]23)ccc1O [Picroside Ⅱ] | 0.006957 | 109.658 | 57 | 43 | – | – | – | – | – |
| C[C@H]1O[C@@H](O[C@H]2CC[C@@]3(C)[C@@H](CC[C@]4(C)[C@@H]3C=C[C@]35OC[C@@]6(CCC(C)(C)C[C@H]63)[C@H](O)C[C@]54C)[C@]2(C)CO)[C@H](O)[C@@H](O[C@@H]2O[C@H](CO)[C@@H](O)[C@H](O)[C@H]2O)[C@H]1O [Saikosaponin D] | 0.0115 | 181.8927 | – | – | 5.41 | 0.9459 | – | – | – |
| O=C(O[C@@H]1Cc2c(O)cc(O)cc2O[C@@H]1c1ccc(O)c(O)c1)c1cc(O)c(O)c(O)c1 [(−)-Epicatechin gallate] | 0.00702 | 110.6488 | – | – | 42.46 | 0.5754 | – | – | – |
| CC(C)=CCOc1c2occc2cc2ccc(=O)oc12 [Imperatorin] | 0.0117 | 184.7298 | 96.1 | 3.93 | – | – | – | – | – |
| CC1(C)C=Cc2c(ccc3c2OC[C@@H](c2ccc(O)cc2O)C3)O1 [Glabridin] | 0.0136 | 215.1279 | 112 | -11.9 | – | – | – | – | – |
| COc1ccc(-c2cc(=O)c3c(OC)c(OC)c(OC)c(OC)c3o2)cc1OC [Nobiletin] | 0.0127 | 200.1315 | 104 | -4.07 | – | – | – | – | – |
| Oc1cc(O)c2c(c1)O[C@H](c1cc(O)c(O)c(O)c1)[C@H](O)C2 [Epigallocatechin] | 0.0131 | 206.6164 | 107 | -7.45 | – | – | – | – | – |
| COc1cc2c(c(OC)c1OC)-c1c(cc(OC)c(OC)c1OC)C[C@](C)(O)[C@@H](C)C2 [Schisandrol A] | 0.0137 | 215.8934 | – | – | -12.27 | 1.1227 | – | – | – |
| COc1ccc2cc1Oc1ccc(cc1)C[C@H]1c3cc(c(OC)cc3CCN1C)Oc1c(O)c(OC)cc3c1[C@H](C2)N(C)CC3 [Fangchinoline] | 0.0139 | 219.4962 | 114 | -14.2 | – | – | – | – | – |
| COc1cc2c(cc1O)CC[n+]1cc3c(OC)c(OC)ccc3cc1-2.[Cl-] [Jatrorrhizine Hydrochloride] | 0.0127 | 200.7169 | – | – | -4.38 | 1.0438 | – | – | – |
| COc1cc(C[C@H]2C(=O)OC[C@@H]2Cc2ccc(OC)c(OC)c2)ccc1O [Arctigenin] | 0.0129 | 203.0137 | 106 | -5.57 | – | – | – | – | – |
| C[C@H]1O[C@@H](O[C@H]2CC[C@@]3(C)[C@@H](CC[C@]4(C)[C@@H]3C=C[C@]35OC[C@@]6(CCC(C)(C)C[C@H]63)[C@@H](O)C[C@]54C)[C@]2(C)CO)[C@H](O)[C@@H](O[C@@H]2O[C@H](CO)[C@@H](O)[C@H](O)[C@H]2O)[C@H]1O [Saikosaponin A] | 0.0115 | 181.6675 | 94.5 | 5.53 | – | – | – | – | – |
| Oc1cc(O)c2c(c1)O[C@H](c1cc(O)c(O)c(O)c1)[C@H](O)C2 [(−)-Epigallocatechin] | 0.0131 | 206.076 | – | – | -7.17 | 1.0717 | – | – | – |
| C[C@@H]1O[C@@H](O[C@@H]2[C@@H](O)[C@H](OCCc3ccc(O)c(O)c3)O[C@H](CO)[C@H]2OC(=O)/C=C/c2ccc(O)c(O)c2)[C@H](O)[C@H](O)[C@H]1O [Acteoside] | 0.0123 | 194.5022 | 101 | -1.15 | – | – | – | – | – |
| O=C([O-])C(O)Cc1ccc(O)c(O)c1.[Na+] (centres unmarked) [Sodium Danshensu] | 0.0105 | 165.3652 | – | – | 14 | 0.86 | – | – | – |
| (+)-Catechin hydrate | 0.0132 | 207.427 | – | – | -7.87 | 1.0787 | – | – | – |
| O=C(/C=C/c1ccc(O)cc1)CC(=O)/C=C/c1ccc(O)cc1 [Bisdemethoxycurcumin] | 0.0114 | 180.2715 | 93.8 | 6.25 | – | – | – | – | – |
| O=c1c(-c2ccc(O)cc2)coc2cc(O[C@@H]3O[C@H](CO)[C@@H](O)[C@H](O)[C@H]3O)cc(O)c12 [Genistin] | 0.0129 | 203.1488 | 106 | -5.64 | – | – | – | – | – |

| Compound | slope [1] | enzyme activity [2] [nmol/min/mg] | remaining activity at 2 µM [3] [%] | inhibition at 2 µM [4] [%] | % inhibition [2] [%] | ratio (activity relative to CON) [3] | slope | inhibition at 2 µM [%] | remaining activity at 2 µM [%] |
| --- | --- | --- | --- | --- | --- | --- | --- | --- | --- |
| Hydroxysafflor yellow A | – | 138.7951 | – | – | 27.82 | 0.7218 | 0.008806 | – | – |
| C=C1C(=O)O[C@@H]2/C=C(\C)CC/C=C(\C)CC[C@@H]12 [Costundide] | 0.007263 | 114.4767 | – | – | 40.47 | 0.5953 | – | – | – |
| O=c1c(O[C@@H]2O[C@H](CO)[C@@H](O)[C@H](O)[C@H]2O)c(-c2ccc(O)cc2)oc2cc(O)cc(O)c12 [Astragalin] | 0.007614 | 120.0159 | 62.4 | 37.6 | – | – | – | – | – |
| CC(C)(C)[C@]1(O)CC2OC(=O)CC23C(=O)OC2OC(=O)[C@H](O)C231 (some centres unmarked) [Bilobalide] | – | 120.151 | – | – | – | – | 0.007623 | 37.5 | 62.5 |
| O=C(O[C@@H]1Cc2c(O)cc(O)cc2O[C@@H]1c1cc(O)c(O)c(O)c1)c1cc(O)c(O)c(O)c1 [(−)-Epigallocatechin gallate] | 0.0121 | 191.3949 | 99.5 | 0.47 | – | – | – | – | – |
| COc1cc2c(c(OC)c1OC)-c1c(cc3c(c1OC)OCO3)CC(C)C(C)C2 (centres unmarked) [Schizandrin B] | 0.0151 | 238.2754 | – | – | -23.91 | 1.2391 | – | – | – |
| O=c1c(-c2ccc(O)cc2)coc2cc(O[C@@H]3O[C@H](CO)[C@@H](O)[C@H](O)[C@H]3O)ccc12 [Daidzin] | 0.013 | 204.9952 | 107 | -6.6 | – | – | – | – | – |
| CC(C)=CCC[C@](C)(O[C@@H]1O[C@H](CO)[C@@H](O)[C@H](O)[C@H]1O)[C@H]1CC[C@]2(C)[C@@H]1[C@H](O)C[C@@H]1[C@@]3(C)CC[C@H](O)C(C)(C)[C@@H]3CC[C@]12C [Ginsenoside CK] | 0.0123 | 193.3764 | – | – | -0.56 | 1.0056 | – | – | – |
| Oc1cc(O)c2c(c1)O[C@H](c1ccc(O)c(O)c1)[C@H](O)C2 [Epicatechin] | 0.0136 | 214.5874 | 112 | -11.6 | – | – | – | – | – |
| O=c1c(-c2ccc(O)cc2)coc2cc(O)ccc12 [Daidzein] | 0.007957 | 125.4199 | 65.2 | 34.8 | – | – | – | – | – |
| Ginkgolide B | 0.007969 | 125.6001 | – | – | 34.68 | 0.6532 | – | – | – |
| COc1cc2c(=O)c(-c3ccc(O)cc3)coc2cc1O[C@@H]1O[C@H](CO)[C@@H](O)[C@H](O)[C@H]1O [Glycitin] | 0.00436 | 68.722 | – | – | 64.26 | 0.3574 | – | – | – |
| O=c1c(O[C@@H]2O[C@H](CO)[C@H](O)[C@H](O)[C@H]2O)c(-c2ccc(O)c(O)c2)oc2cc(O)cc(O)c12 [Hyperoside] | 0.0123 | 193.4665 | 101 | -0.61 | – | – | – | – | – |
| CC(C)=CC[C@@H](O)C1=CC(=O)c2c(O)ccc(O)c2C1=O [Shikonin] | 0.0134 | 210.4443 | 109 | -9.44 | – | – | – | – | – |
| C[C@@H]1C(=O)O[C@H]2C[C@@]34[C@H]5C[C@@H](C(C)(C)C)[C@]36[C@@H](OC(=O)[C@@H]6O)O[C@@]4(C(=O)O5)[C@]21O [Ginkgolide A] | 0.008406 | 132.4903 | 68.9 | 31.1 | – | – | – | – | – |
| CC1(C)O[C@H]1COc1c2ccoc2cc2oc(=O)ccc12 [Oxypeucedanin] | 0.0122 | 192.3856 | 100 | -0.05 | – | – | – | – | – |
| COc1ccc2c(c1)CC=C(CO)c1cc3c(cc1-2)OCO3 [Tenuifolin] | 0.007214 | 113.7111 | 59.1 | 40.9 | – | – | – | – | – |

Reference: PMC6616128, “Liquiritin, as a Natural Inhibitor of AKR1C1, Could Interfere With the Progesterone Metabolism” (Frontiers in Physiology, 2019)
